Literature values, collected in PMC7670640 (Pharmacology Research & Perspectives, 2020).

Details: prior terminated phase IIb clinical trial; cited from earlier work

C=C(C)[C@@H]1CC[C@]2(NCCN3CCS(=O)(=O)CC3)CC[C@]3(C)[C@H](CC[C@@H]4[C@@]5(C)CC=C(c6ccc(C(=O)O)cc6)C(C)(C)[C@@H]5CC[C@]43C)[C@@H]12 [GSK3532795]
GI intolerability: GI intolerability (predominantly abdominal pain and diarrhea)
